Data set [1] has as its target T1, rat adenosine A2a receptors (Rattus norvegicus, UniProt P30543).
T1 construct: from tissue; host or cells: rat striatum (membranes)
The experiment in a line: Binding at rat A2a receptors, rat striatal membranes, [3H]-CGS21680. The procedure: Chemical structures of compounds of the invention are given in the Examples below. Binding experiments were carried out using rat A2a receptors. Ki values were determined for each compound at pH 5.5 and pH 7.4.

The conditions of data set [2]: 20 mg/kg po; cited from earlier work.
Data set [3] is described as follows: Tachycardia by 12 lead ECGs in human volunteers. It counts as in vivo. The procedure: Tachycardia was determined using 12 lead ECGs.
For data set [4], the system named is U937 human macrophage cells. The following applies: cited from earlier work.
For another data set, the target named is adenosine A2A receptor (Homo sapiens, UniProt P29274). The experiment in a line: EC50 at the adenosine A2A receptor. Type of data set: biochemical. An excerpt:
For the avoidance of doubt, the EC50 value of a compound is defined herein as the concentration of the compound that provokes a receptor response halfway between the baseline receptor response and the maximum receptor response (as determined, for example, using a dose-response curve).
The EC50 value should be determined under standard conditions (balanced salt solutions buffered to pH 7.4). For EC50 determinations using isolated membranes, cells and tissues this would be in buffered salt solution at pH 7.4 (e.g. cell culture medium), for example as in Daly et al., Pharmacol. (1993) 46, 91-100), or preferably as in Tilburg et al (J. Med. Chem. (2002) 45, 91-100). The EC50 could also be determined in vivo by measuring adenosine receptor mediated responses in a normal healthy animal, or even in a tissue perfused under normal conditions (i.e. oxygenated blood, or oxygenated isotonic media, also buffered at pH 7.4) in a normal healthy animal.

Data set [5] relates to rat adjuvant model of arthritis. The experiment in a line: Analgesic relief in rat adjuvant model of arthritis. Type of data set: in vivo.
Data set [6] is described as follows: Plasma concentrations after single oral dosing in human volunteers. It counts as in vivo.
Data set [7] in a line: Minimum effective analgesic plasma concentration in the rat. Type of data set: in vivo.
The subject of data set [8] is carageenan-induced inflammation. Particulars: rats, 20 mg/kg po; cited from earlier work.
[9] abbreviates: pH 5.5, read-out: (Ki) nM (pH 5.5).
[10] abbreviates: pH 7.4, read-out: (Ki) nM (pH 7.4).

Read-outs that look alike come from different tables or passages of the source.

T1 sequence (P30543 whole entry): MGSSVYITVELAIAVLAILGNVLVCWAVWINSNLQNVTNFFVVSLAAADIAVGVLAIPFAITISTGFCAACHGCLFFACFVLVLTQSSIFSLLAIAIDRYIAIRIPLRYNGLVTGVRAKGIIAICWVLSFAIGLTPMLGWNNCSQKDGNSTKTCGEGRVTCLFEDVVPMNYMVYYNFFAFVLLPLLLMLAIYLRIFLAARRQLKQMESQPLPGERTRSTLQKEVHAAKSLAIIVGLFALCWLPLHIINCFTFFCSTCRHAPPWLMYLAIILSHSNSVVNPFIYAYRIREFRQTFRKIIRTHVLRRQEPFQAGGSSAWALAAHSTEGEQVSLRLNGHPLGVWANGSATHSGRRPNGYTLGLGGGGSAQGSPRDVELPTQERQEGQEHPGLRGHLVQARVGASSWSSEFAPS
Sequence of adenosine A2A receptor (P29274 whole entry): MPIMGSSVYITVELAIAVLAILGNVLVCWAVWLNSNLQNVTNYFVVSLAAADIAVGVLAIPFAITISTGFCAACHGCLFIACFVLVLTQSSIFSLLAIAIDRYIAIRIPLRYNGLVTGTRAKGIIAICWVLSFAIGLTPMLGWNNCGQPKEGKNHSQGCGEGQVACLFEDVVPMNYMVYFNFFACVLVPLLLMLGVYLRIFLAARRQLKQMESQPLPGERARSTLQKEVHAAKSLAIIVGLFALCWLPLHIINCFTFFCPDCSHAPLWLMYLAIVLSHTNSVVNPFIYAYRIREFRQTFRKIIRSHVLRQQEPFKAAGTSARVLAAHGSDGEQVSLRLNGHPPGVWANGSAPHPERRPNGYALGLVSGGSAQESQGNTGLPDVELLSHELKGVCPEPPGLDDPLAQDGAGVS

Take `CCCCNc1nc(N)c2ncn([C@@H]3O[C@H](CO)[C@@H](O)[C@H]3O)c2n1` [NHCH2CH2CH2CH3]: the results for the Ki in [1] (setting [9]) and in data set [1] (setting [10]) were 47 nM and 17 nM, respectively.
In the case of `CCCNc1nc(N)c2ncn([C@@H]3O[C@H](CO)[C@@H](O)[C@H]3O)c2n1` [NHCH2CH2CH3], the inhibition constant Ki in [1] (setting [9]) and in [1] (setting [10]) was 1900 nM throughout.
`COc1nc(N)c2ncn([C@@H]3O[C@H](CO)[C@@H](O)[C@H]3O)c2n1` [spongosine, 2-methoxyadenosine]: the “reduction in heart rate” value in data set [2] is 25%. For the same molecule, the “reduction in mean blood pressure” value in data set [2] is given as 41%. Besides, the Tachycardia side effect entry is “No” in data set [3] (single oral dose 0.2 mg); “No” in data set [3] (single oral dose 0.8 mg); “No” in [3] (single oral dose 3.5 mg); “No” in [3] (single oral dose 10.5 mg); “No” in [3] (single oral dose 21 mg); “Yes” in [3] (single oral dose 28 mg). Moreover, the “phorbol ester induced TNF alpha release” value in [4] is “reduce phorbol ester induced TNF alpha release”. For the same molecule, the EC50 at adenosine A2A receptor is roughly 1000 nM. Further, the “minimum plasma concentration giving maximal analgesic relief” value in [5] stood at 0.06 µM. The “time with plasma concentrations greater than […]” value in data set [6] (human, 0.8 mg oral) was “approximately 1.5 h”. For the same molecule, the “minimum effective dose in the human” value in data set [6] (suggested from rat minimum effective plasma concentration) is “approximately 0.8 mg”. Besides, in data set [7], the “minimum effective analgesic plasma concentration” value turned out to be 0.025 µM. Moreover, in data set [8], the “inhibition of carageenan-induced inflammation” value is recorded as 25%.
